Experimental data as given in ChEMBL document CHEMBL2069300 (J Med Chem, 2012).
Values after ≈ are worked out from the molar mass of the structure shown.

Assay: Aqueous solubility of the compound in phosphate buffered saline at pH 7.4
Format: physicochemical
Settings: buffer

Structure (SMILES)	solubility
Nc1nc2ccc(S(=O)(=O)N3CCCCC3)cc2s1	338.8 µM (≈ 101 µg/mL)
COC(=O)c1ccc2c(c1)C(C)(C)C(/C=C/c1ccc(O)cc1)=[N+]2C	218.7 µM
COC(=O)c1ccc(/C=C/C2=[N+](C)c3ccc(OC)cc3C2(C)C)cc1	0.2 µM
Cc1c(C=O)c(C(=O)O)c(C)n1Cc1ccc(Cl)cc1	576 µM (≈ 168 µg/mL)
O=Cc1nc2ccccc2n1Cc1ccc2ccccc2c1	42.1 µM (≈ 12.1 µg/mL)
O=Cc1nc2ccccc2n1Cc1ccc(Cl)cc1Cl	15.3 µM (≈ 4.67 µg/mL)
CCCCNC(=O)Cn1sc2nc(C)cc(C)c2c1=O	487 µM (≈ 143 µg/mL)
Cc1[nH]c2ccccc2c1C(Nc1ccccc1)c1ccc(CCCO)cc1 (centres undefined)	503.4 µM (≈ 187 µg/mL)

Now from value to compound:

solubility	Structure (SMILES)
453.9 µM (≈ 165 µg/mL)	COc1ccc(OC)c(S(=O)(=O)ON2C(=O)c3ccccc3C2=O)c1
462 µM (≈ 153 µg/mL)	CCc1ccc(S(=O)(=O)ON2C(=O)c3ccccc3C2=O)cc1
377.4 µM (≈ 104 µg/mL)	Cc1cccc(N2COc3ccc4ccccc4c3C2)c1
0.7 µM	CCOc1ccc(/C=C/C2=[N+](C)c3ccc(C(=O)OC)cc3C2(C)C)cc1
21.9 µM (≈ 9.1 µg/mL)	CCCS(=O)(=O)c1oc(-c2cccs2)nc1S(=O)(=O)c1ccc(F)cc1
49.9 µM (≈ 19.1 µg/mL)	CCS(=O)(=O)c1oc(-c2cccs2)nc1S(=O)(=O)c1ccccc1
17.6 µM (≈ 7.56 µg/mL)	CC(C)CS(=O)(=O)c1oc(-c2cccs2)nc1S(=O)(=O)c1ccc(F)cc1
34.2 µM (≈ 13.6 µg/mL)	CC(C)S(=O)(=O)c1oc(-c2cccs2)nc1S(=O)(=O)c1ccccc1
493 µM (≈ 192 µg/mL)	COCC(=O)Oc1c(Sc2ccc(Cl)cc2)c(C)nn1-c1ccccc1
273.3 µM	COc1ccc(/C=C/C2=[N+](C)c3ccc(OC)cc3C2(C)C)cc1
0.1 µM	COC(=O)c1ccc2c(c1)C(C)(C)C(/C=C/c1ccc(OC)cc1)=[N+]2C

Assay: Stability of the compound in water at neutral pH after 24 hrs
Format: physicochemical
Settings: buffer

Structure (SMILES)	Stability
Cc1[nH]c2ccccc2c1C(Nc1ccccc1)c1ccccc1 (centres undefined)	Stable
Cc1[nH]c2ccccc2c1C(Nc1ccccc1)c1ccc(Cl)cc1 (centres undefined)	Stable
Cc1ccc(C(Nc2ccccc2)c2c(C)[nH]c3ccccc23)cc1 (centres undefined)	Stable
Cc1[nH]c2ccccc2c1C(Nc1ccccc1)c1ccc(N(C)C)cc1 (centres undefined)	Stable
Cc1[nH]c2ccccc2c1C(Nc1ccccc1)c1ccc2ccccc2c1 (centres undefined)	Stable
Cc1[nH]c2ccccc2c1C(Nc1ccccc1)c1ccc(CCCO)cc1 (centres undefined)	Stable
Cc1[nH]c2ccccc2c1C(Nc1ccccc1)c1ccccc1Cl (centres undefined)	Stable
Cc1[nH]c2ccccc2c1C(Nc1ccc(Cl)cc1)c1ccccc1Cl (centres undefined)	Stable
Cc1[nH]c2ccccc2c1C(Nc1ccc(N(C)C)cc1)c1ccccc1Cl (centres undefined)	Stable
Cn1cc(C(Nc2ccccc2)c2ccccc2Cl)c2ccccc21 (centres undefined)	Stable
Clc1ccccc1C(Nc1ccccc1)c1c[nH]c2ccccc12 (centres undefined)	Stable

Other lines, results leading:

Stability	Structure (SMILES)
Stable	COc1ccc(C(Nc2ccccc2)c2c(C)[nH]c3ccccc23)cc1 (centres undefined)
Stable	Cc1[nH]c2ccccc2c1C(Nc1ccccc1)c1ccc([N+](=O)[O-])cc1 (centres undefined)
Stable	Cc1[nH]c2ccccc2c1C(C)Nc1ccccc1 (centres undefined)
Stable	COc1ccc(NC(c2ccccc2Cl)c2c(C)[nH]c3ccccc23)cc1 (centres undefined)
Stable	Cc1ccc(NC(c2ccccc2Cl)c2c(C)[nH]c3ccccc23)cc1 (centres undefined)
Stable	Cc1[nH]c2ccccc2c1C(Nc1ccc([N+](=O)[O-])cc1)c1ccccc1Cl (centres undefined)
Stable	Cc1[nH]c2ccccc2c1C(Nc1ccc(C(F)(F)F)cc1)c1ccccc1Cl (centres undefined)
Stable	COc1ccccc1NC(c1ccccc1Cl)c1c(C)[nH]c2ccccc12 (centres undefined)
Stable	Cc1[nH]c2ccccc2c1C(Sc1ccccc1)c1ccccc1Cl (centres undefined)
